Data as given in ChEMBL document CHEMBL1201862, “PubChem BioAssay data set” (2004).
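Where inhibition never reached the appropriate level, the endpoint shown equals the highest concentration tested. Otherwise, values were interpolated linearly from a five-concentration, 48-hour dose response in 96-well plates. GI50: concentration for 50% inhibition of growth.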 Active and inactive are the calls of the source. Rule as the data show it: active = GI50 up to about 1.1 µM and inactive = higher.

What was measured:
Experiment in all cases: NCI-60 cell line screen, 48 h
[1] = tested on: DU-145
[2] = tested on: OVCAR-5
[3] = tested on: UACC-257
[4] = tested on: SW-620
[5] = tested on: HOP-62
[6] = tested on: SNB-75
[7] = tested on: NCI-H522
[8] = tested on: HCT-15
[9] = tested on: CCRF-CEM
[10] = tested on: SNB-19
[11] = tested on: 786-0
[12] = tested on: SK-OV-3
[13] = tested on: NCI-H226
[14] = tested on: UO-31
[15] = tested on: SR
[16] = tested on: TK-10
[17] = tested on: MOLT-4
[18] = tested on: IGROV-1
[19] = tested on: PC-3
[20] = tested on: OVCAR-3
[21] = tested on: MDA-MB-231
[22] = tested on: SF-295
[23] = tested on: SK-MEL-2
[24] = tested on: UACC-62
[25] = tested on: NCI-H23
[26] = tested on: MDA-MB-435
[27] = tested on: MDA-N
[28] = tested on: COLO 205
[29] = tested on: ACHN
[30] = tested on: LOX IMVI
[31] = tested on: HOP-92
[32] = tested on: EKVX
[33] = tested on: SN12C
[34] = tested on: HL-60
[35] = tested on: HT-29
[36] = tested on: OVCAR-4
[37] = tested on: SF-268
[38] = tested on: M14
[39] = tested on: T47D
[40] = tested on: KM12
[41] = tested on: SK-MEL-28
[42] = tested on: HCT-116
[43] = tested on: HCC 2998
[44] = tested on: MCF7
[45] = tested on: U-251
[46] = tested on: SK-MEL-5
[47] = tested on: CAKI-1
[48] = tested on: RPMI-8226
[49] = tested on: BT-549
[50] = tested on: OVCAR-8
[51] = tested on: NCI-H460
[52] = tested on: A549
[53] = tested on: Malme-3M
[54] = tested on: Hs-578T
[55] = tested on: NCI/ADR-RES
[56] = tested on: SF-539
[57] = tested on: K562
[58] = tested on: A498
[59] = tested on: RXF 393

SMILES: c1ccc(Cc2cccc3cc(-c4ccc(-c5ccccc5)cc4)[nH]c23)cc1
- GI50 [1]: 54.6 µM (inactive)
- GI50 [2]: > 100 µM (inactive)
- GI50 [3]: > 100 µM (inactive)
- GI50 [4]: 92 µM (inactive)
- GI50 [5]: 31.5 µM (inactive)
- GI50 [6]: 22.5 µM (inactive)
- GI50 [7]: 17.2 µM (inactive)
- GI50 [8]: > 100 µM
- GI50 [9]: 30.1 µM (inactive)
- GI50 [10]: 93.3 µM (inactive)
- GI50 [11]: > 100 µM (inactive)
- GI50 [12]: > 100 µM (inactive)
- GI50 [13]: > 100 µM (inactive)
- GI50 [14]: > 100 µM (inactive)
- GI50 [15]: 16.9 µM (inactive)
- GI50 [16]: > 100 µM (inactive)
- GI50 [17]: > 100 µM (inactive)
- GI50 [18]: > 100 µM (inactive)
- GI50 [19]: 61.9 µM (inactive)
- GI50 [20]: > 100 µM (inactive)
- GI50 [21]: 99.5 µM (inactive)
- GI50 [22]: > 100 µM (inactive)
- GI50 [23]: > 100 µM (inactive)
- GI50 [24]: > 100 µM (inactive)
- GI50 [25]: > 100 µM (inactive)
- GI50 [26]: > 100 µM (inactive)
- GI50 [27]: > 100 µM (inactive)
- GI50 [28]: > 100 µM (inactive)
- GI50 [29]: > 100 µM (inactive)
- GI50 [30]: > 100 µM (inactive)
- GI50 [31]: > 100 µM (inactive)
- GI50 [32]: > 100 µM (inactive)
- GI50 [33]: 96.6 µM (inactive)
- GI50 [34]: > 100 µM (inactive)
- GI50 [35]: > 100 µM (inactive)
- GI50 [36]: 19.7 µM (inactive)
- GI50 [37]: 32.7 µM (inactive)
- GI50 [38]: 52.8 µM (inactive)
- GI50 [39]: > 100 µM (inactive)
- GI50 [40]: 86.9 µM (inactive)
- GI50 [41]: > 100 µM (inactive)
- GI50 [42]: > 100 µM (inactive)
- GI50 [43]: 95.1 µM (inactive)
- GI50 [44]: 97.1 µM (inactive)
- GI50 [45]: 70.6 µM (inactive)
- GI50 [46]: > 100 µM (inactive)
- GI50 [47]: 75.7 µM (inactive)
- GI50 [48]: 71.4 µM (inactive)
- GI50 [49]: > 100 µM (inactive)
- GI50 [50]: 45.8 µM (inactive)
- GI50 [51]: > 100 µM (inactive)
- GI50 [52]: 76.7 µM (inactive)
- GI50 [53]: 1.76 µM (inactive)
- GI50 [54]: 14.7 µM (inactive)
- GI50 [55]: > 100 µM (inactive)
- GI50 [56]: 53.8 µM (inactive)

SMILES: Cc1c2c(OCCN3CCCCC3)nn(C)c(=O)c2c(C)n1-c1ccccc1
- GI50 [1]: 52.7 µM (inactive)
- GI50 [2]: > 100 µM (inactive)
- GI50 [3]: 22.1 µM (inactive)
- GI50 [4]: 55 µM (inactive)
- GI50 [5]: > 100 µM (inactive)
- GI50 [6]: 19.5 µM (inactive)
- GI50 [7]: 26.7 µM (inactive)
- GI50 [8]: 32 µM
- GI50 [9]: 35.7 µM (inactive)
- GI50 [10]: 77.1 µM (inactive)
- GI50 [11]: 18.8 µM (inactive)
- GI50 [12]: 56.1 µM (inactive)
- GI50 [13]: 38 µM (inactive)
- GI50 [14]: 12.2 µM (inactive)
- GI50 [57]: 27.7 µM (inactive)
- GI50 [16]: 67.5 µM (inactive)
- GI50 [17]: 29.5 µM (inactive)
- GI50 [18]: 70.5 µM (inactive)
- GI50 [19]: 30.1 µM (inactive)
- GI50 [20]: 77.6 µM (inactive)
- GI50 [21]: 32.4 µM (inactive)
- GI50 [22]: 21.2 µM (inactive)
- GI50 [23]: 17 µM (inactive)
- GI50 [58]: 16.4 µM (inactive)
- GI50 [24]: 25.8 µM (inactive)
- GI50 [25]: 28.1 µM (inactive)
- GI50 [26]: 32.3 µM (inactive)
- GI50 [27]: 35.1 µM (inactive)
- GI50 [28]: 17.7 µM (inactive)
- GI50 [29]: 28.5 µM (inactive)
- GI50 [30]: 21.8 µM (inactive)
- GI50 [31]: 58.9 µM (inactive)
- GI50 [32]: 50.6 µM (inactive)
- GI50 [33]: 56.1 µM (inactive)
- GI50 [34]: 31 µM (inactive)
- GI50 [35]: 30.9 µM (inactive)
- GI50 [36]: 63.8 µM (inactive)
- GI50 [59]: 33.4 µM (inactive)
- GI50 [37]: 53.1 µM (inactive)
- GI50 [38]: 18.5 µM (inactive)
- GI50 [39]: 41.2 µM (inactive)
- GI50 [40]: 32.7 µM (inactive)
- GI50 [41]: 25.9 µM (inactive)
- GI50 [42]: 38.6 µM (inactive)
- GI50 [43]: 28.1 µM (inactive)
- GI50 [44]: 25.5 µM (inactive)
- GI50 [45]: 49.2 µM (inactive)
- GI50 [46]: 16.7 µM (inactive)
- GI50 [47]: 32.9 µM (inactive)
- GI50 [48]: 23.6 µM (inactive)
- GI50 [49]: 44.4 µM (inactive)
- GI50 [50]: 74.8 µM (inactive)
- GI50 [51]: 39.2 µM (inactive)
- GI50 [52]: 43.6 µM (inactive)
- GI50 [53]: 19.1 µM (inactive)
- GI50 [54]: 54.1 µM (inactive)
- GI50 [55]: 42.4 µM (inactive)
- GI50 [56]: 29.4 µM (inactive)
